Laboratory results from ChEMBL document CHEMBL6127086, “Recent advances in dual PROTACs degrader strategies for disease treatment” (Eur J Med Chem, 2024).
One block for each compound: values may come before it. Starred links: 1 amine or outer side, 2 acyl side, 3 side chain; linkers in the order of their positions; H or OH if unused. Non-standard residues stand in square brackets, D forms with d. Residues, ends and D or L forms follow the SMILES beside them. *: point of attachment. X1 = O=C([C@H](Cc1ccc(C(F)(F)P(=O)(O)O)cc1)O[*:1])[*:2]; NHCH2(1,3-C6H4)CH2CO = O=C(Cc1cccc(CN[*:1])c1)[*:2]; Phenylacetyl(4-OH,3-OMe) = COc1cc(CC(=O)*)ccc1O; Benzoyl(3-Br,4-Me) = Cc1ccc(C(=O)*)cc1Br; X2 = Cc1ncsc1-c1ccc([C@@H](C)N*)cc1; Hyp = O=C(O)[C@@H]1C[C@@H](O)CN1; Tle = CC(C)(C)[C@H](N)C(=O)O

How the values were obtained:
[1] = Antiproliferative activity against human MINO cells assessed as reduction in cell viability incubated fro 72 hrs by Celltiter-glo reagent based analysis; assay type: functional
[2] = Antiproliferative activity against human LNCaP-95 cells assessed as reduction in cell viability incubated for 72 hrs by Celltiter- Glo assay; assay type: functional, cell-based; conditions: LNCaP-95, 72 h
VCaP = experiment: Antiproliferative activity against human VCaP cells assessed as reduction in cell viability incubated for 72 hrs by Celltiter- Glo assay; assay type: functional, cell-based
CWR22R = experiment: Antiproliferative activity against human 22Rv1 cells assessed as reduction in cell viability incubated for 72 hrs by Celltiter- Glo assay; assay type: functional, cell-based; conditions: 22Rv1, 72 h
[3] = biological target: T1, von Hippel-Lindau disease tumor suppressor/Bromodomain-containing protein 2 (Homo sapiens, UniProt P25440+P40337); experiment: PROTAC activity at VHL/BRD2 in human 22Rv1 cells assessed as degradation of BRD2 incubated for 16 hrs by Western blot analysis; assay type: cell-based
T1 sequence (P25440 whole entry): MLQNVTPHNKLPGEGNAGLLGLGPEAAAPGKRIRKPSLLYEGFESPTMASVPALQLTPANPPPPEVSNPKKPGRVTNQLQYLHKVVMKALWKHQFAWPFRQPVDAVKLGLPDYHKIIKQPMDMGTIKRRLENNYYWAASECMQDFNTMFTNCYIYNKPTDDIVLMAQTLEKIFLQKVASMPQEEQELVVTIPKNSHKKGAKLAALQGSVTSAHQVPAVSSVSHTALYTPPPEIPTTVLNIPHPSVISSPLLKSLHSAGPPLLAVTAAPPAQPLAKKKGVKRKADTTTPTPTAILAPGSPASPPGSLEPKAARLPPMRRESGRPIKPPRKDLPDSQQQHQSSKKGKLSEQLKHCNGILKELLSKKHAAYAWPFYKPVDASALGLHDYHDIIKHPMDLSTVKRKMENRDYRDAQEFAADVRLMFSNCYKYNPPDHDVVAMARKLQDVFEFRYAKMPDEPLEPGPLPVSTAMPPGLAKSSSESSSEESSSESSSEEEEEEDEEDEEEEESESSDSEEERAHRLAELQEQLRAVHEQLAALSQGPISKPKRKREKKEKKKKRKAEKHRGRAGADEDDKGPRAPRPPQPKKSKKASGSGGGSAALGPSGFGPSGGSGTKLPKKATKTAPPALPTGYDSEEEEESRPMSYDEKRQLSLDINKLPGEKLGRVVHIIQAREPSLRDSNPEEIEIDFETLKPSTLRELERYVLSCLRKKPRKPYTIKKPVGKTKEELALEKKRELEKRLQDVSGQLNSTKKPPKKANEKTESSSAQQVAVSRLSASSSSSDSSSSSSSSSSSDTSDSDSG
T1 sequence (P40337 whole entry): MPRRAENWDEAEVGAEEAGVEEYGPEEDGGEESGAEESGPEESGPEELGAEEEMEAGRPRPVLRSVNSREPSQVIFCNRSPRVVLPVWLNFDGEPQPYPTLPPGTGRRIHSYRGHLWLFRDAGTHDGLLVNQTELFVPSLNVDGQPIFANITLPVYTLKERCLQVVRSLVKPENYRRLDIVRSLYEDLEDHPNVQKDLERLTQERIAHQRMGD

[4] = biological target: Protein cereblon/Bromodomain-containing protein 3 (Homo sapiens, UniProt Q15059+Q96SW2); experiment: PROTAC activity at CRBN/BRD3 in human MV4-11 cells assessed as degradation of BRD3 protein incubated for 4 hrs by Western blotting assay; assay type: cell-based
Chain of Protein cereblon/Bromodomain-containing protein 3 (Q15059 whole entry): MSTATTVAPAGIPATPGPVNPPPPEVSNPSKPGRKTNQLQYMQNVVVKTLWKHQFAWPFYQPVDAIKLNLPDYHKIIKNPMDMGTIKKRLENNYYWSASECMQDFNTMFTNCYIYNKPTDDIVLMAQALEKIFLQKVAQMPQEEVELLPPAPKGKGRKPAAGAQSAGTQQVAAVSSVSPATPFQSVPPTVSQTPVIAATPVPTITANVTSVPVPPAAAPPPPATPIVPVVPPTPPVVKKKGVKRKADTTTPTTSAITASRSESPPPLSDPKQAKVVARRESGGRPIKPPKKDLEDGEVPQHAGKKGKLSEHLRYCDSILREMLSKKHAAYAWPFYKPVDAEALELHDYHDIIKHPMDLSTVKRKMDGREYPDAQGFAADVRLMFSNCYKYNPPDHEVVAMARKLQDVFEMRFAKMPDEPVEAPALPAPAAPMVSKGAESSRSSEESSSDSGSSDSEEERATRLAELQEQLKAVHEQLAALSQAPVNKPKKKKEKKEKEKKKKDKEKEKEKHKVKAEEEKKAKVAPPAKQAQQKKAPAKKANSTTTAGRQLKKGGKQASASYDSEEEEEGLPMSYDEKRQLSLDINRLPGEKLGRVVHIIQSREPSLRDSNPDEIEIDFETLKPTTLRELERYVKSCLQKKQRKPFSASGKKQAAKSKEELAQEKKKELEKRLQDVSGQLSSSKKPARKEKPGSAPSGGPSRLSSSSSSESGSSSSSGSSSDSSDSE
Chain of Protein cereblon/Bromodomain-containing protein 3 (Q96SW2 whole entry): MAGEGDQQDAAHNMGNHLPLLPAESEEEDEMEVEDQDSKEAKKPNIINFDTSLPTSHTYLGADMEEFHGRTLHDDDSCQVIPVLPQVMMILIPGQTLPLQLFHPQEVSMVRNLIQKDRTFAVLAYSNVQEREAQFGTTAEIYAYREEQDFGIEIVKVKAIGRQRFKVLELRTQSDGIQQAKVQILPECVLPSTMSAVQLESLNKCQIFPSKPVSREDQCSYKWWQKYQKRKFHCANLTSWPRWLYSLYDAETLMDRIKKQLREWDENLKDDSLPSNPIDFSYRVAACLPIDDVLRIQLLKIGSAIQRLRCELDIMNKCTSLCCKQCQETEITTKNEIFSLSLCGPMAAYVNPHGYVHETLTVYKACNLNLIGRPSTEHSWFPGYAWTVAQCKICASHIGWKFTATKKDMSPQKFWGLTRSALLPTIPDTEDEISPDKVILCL

[5] = biological target: Protein cereblon/Bromodomain-containing protein 2 (Homo sapiens, UniProt P25440+Q96SW2); experiment: PROTAC activity at CRBN/BRD2 in human MV4-11 cells assessed as degradation of BRD2 protein incubated for 4 hrs by Western blotting assay; assay type: cell-based
Chain of Protein cereblon/Bromodomain-containing protein 2 (P25440 whole entry): as the sequence (P25440 whole entry) above
Chain of Protein cereblon/Bromodomain-containing protein 2 (Q96SW2 whole entry): as the sequence (Q96SW2 whole entry) above

[6] = biological target: Protein cereblon/Cyclin-dependent kinase 4 (Homo sapiens, UniProt P11802+Q96SW2); experiment: Protac activity at CRBN/CDK4 in human MDA-MB-231 cells assessed as induction of CDK4 degradation measured after 6 hrs by Western blot analysis; assay type: cell-based
Chain of Protein cereblon/Cyclin-dependent kinase 4 (P11802 whole entry): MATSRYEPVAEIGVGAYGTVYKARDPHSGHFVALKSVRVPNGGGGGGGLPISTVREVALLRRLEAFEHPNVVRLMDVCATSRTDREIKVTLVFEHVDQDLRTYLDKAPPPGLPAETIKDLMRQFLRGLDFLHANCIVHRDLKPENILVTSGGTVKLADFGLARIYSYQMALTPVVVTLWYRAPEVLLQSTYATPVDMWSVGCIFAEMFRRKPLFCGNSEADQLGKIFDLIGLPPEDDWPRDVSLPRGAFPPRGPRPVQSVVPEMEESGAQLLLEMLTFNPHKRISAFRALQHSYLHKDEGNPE
Chain of Protein cereblon/Cyclin-dependent kinase 4 (Q96SW2 whole entry): as the sequence (Q96SW2 whole entry) above

[7] = biological target: Protein cereblon/Cyclin-dependent kinase 6 (Homo sapiens, UniProt Q00534+Q96SW2); experiment: Protac activity at CRBN/CDK6 in human MDA-MB-231 cells assessed as induction of CDK6 degradation measured after 18 hrs by Western blot analysis; assay type: cell-based
Chain of Protein cereblon/Cyclin-dependent kinase 6 (Q00534 whole entry): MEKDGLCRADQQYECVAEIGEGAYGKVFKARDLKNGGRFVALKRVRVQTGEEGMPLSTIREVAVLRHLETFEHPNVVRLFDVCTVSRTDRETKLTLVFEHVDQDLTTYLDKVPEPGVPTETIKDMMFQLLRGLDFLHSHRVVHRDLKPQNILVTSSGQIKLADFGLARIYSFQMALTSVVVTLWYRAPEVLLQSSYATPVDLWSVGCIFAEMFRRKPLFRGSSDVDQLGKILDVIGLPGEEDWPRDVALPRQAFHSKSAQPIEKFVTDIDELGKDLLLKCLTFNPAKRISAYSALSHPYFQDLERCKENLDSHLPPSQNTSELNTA
Chain of Protein cereblon/Cyclin-dependent kinase 6 (Q96SW2 whole entry): as the sequence (Q96SW2 whole entry) above

[8] = biological target: T2, Protein cereblon/Tyrosine-protein phosphatase non-receptor type 1 (Homo sapiens, UniProt P18031+Q96SW2); experiment: PROTAC activity at PTP1B/CRBN human HepG2 cells assessed as protein degradation incubated for 24 hrs by Western blot analysis; assay type: cell-based
T2 sequence (P18031 whole entry): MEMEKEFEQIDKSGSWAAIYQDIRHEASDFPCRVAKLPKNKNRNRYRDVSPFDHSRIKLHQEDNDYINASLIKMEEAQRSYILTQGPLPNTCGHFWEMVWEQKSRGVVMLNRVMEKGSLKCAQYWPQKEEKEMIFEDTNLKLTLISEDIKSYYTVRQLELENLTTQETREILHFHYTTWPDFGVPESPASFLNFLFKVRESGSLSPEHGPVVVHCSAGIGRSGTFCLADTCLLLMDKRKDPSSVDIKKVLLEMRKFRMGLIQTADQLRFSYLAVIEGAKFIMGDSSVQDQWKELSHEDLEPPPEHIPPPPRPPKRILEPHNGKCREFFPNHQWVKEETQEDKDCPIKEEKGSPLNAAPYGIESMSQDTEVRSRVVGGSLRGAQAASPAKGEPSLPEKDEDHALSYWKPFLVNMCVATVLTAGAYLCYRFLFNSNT
T2 sequence (Q96SW2 whole entry): as the sequence (Q96SW2 whole entry) above

[9] = biological target: T2, Protein cereblon/Tyrosine-protein phosphatase non-receptor type 1; experiment: PROTAC activity at PTP1B/CRBN human HepG2 cells assessed as protein degradation incubated for 16 hrs by Western blot analysis; assay type: cell-based
[10] = biological target: Protein cereblon/CREB-binding protein (Homo sapiens) (UniProt Q92793+Q96SW2); experiment: PROTAC activity at CRBN/CBP in human MV4-11 cells assessed as induction of protein degradation by measuring maximal degradation at 250 nM incubated for 24 hrs by Western blotting analysis relative to control; assay type: cell-based
[11] = biological target: von Hippel-Lindau disease tumor suppressor/Bromodomain-containing protein 4 (Homo sapiens) (UniProt O60885+P40337); experiment: PROTAC activity at human VHL/BRD4 in human HT-1080 cells assessed as maximum degradation of BRD4 at 0.2 uM incubated for 24 hrs by Western blot analysis relative to control; assay type: cell-based
Chain of von Hippel-Lindau disease tumor suppressor/Bromodomain-containing protein 4 (Homo sapiens) (P40337 whole entry, looked up, other chains not shown): as the sequence (P40337 whole entry) above

OVCAR-8 = experiment: Antiproliferative activity against human OVCAR-8 cells assessed as inhibition of growth rate measured for 72 hrs; assay type: functional
[12] = biological target: T1, von Hippel-Lindau disease tumor suppressor/Bromodomain-containing protein 2; experiment: PROTAC activity at human VHL/BRD2 in human HeLa cells assessed as degradation of BRD2 incubated for 16 hrs by Western blot analysis; assay type: cell-based
[13] = biological target: T3, Protein cereblon/Bromodomain-containing protein 4 (Homo sapiens, UniProt O60885+Q96SW2); experiment: PROTAC activity at CRBN/BRD4 (unknown origin) expressed in HEK293 cells assessed as induction of BRD4 degradation incubated for 6 hrs by Western blot analysis; assay type: cell-based
T3 sequence (Q96SW2 whole entry, looked up, other chains not shown): as the sequence (Q96SW2 whole entry) above

RKO = experiment: Antiproliferative activity against human RKO cells assessed as reduction in cell viability by Celltiter-glo reagent based analysis; assay type: functional
[14] = biological target: T3, Protein cereblon/Bromodomain-containing protein 4; experiment: PROTAC activity at CRBN/BRD4 (unknown origin) expressed in HEK293 cells assessed as induction of BRD4 degradation measured after 4 hrs by Western blot analysis; assay type: cell-based
[15] = biological target: von Hippel-Lindau disease tumor suppressor/Bcl-2-like protein 1 (Homo sapiens, UniProt Q07817+P40337); experiment: PROTAC activity at VHL/BCL-XL in human Jurkat cells assessed as induction of BCL-XL degradation incubated for 16 hrs by immunoblot analysis; assay type: cell-based
[16] = biological target: von Hippel-Lindau disease tumor suppressor/WD repeat-containing protein 5 (Homo sapiens, UniProt P61964+P40337); experiment: PROTAC activity at VHL/WDR5 in human MIA PaCa-2 cells assessed as degradation of WDR5 protein incubated for 18 hrs by Western blotting analysis; assay type: cell-based
Cereblon/Ikaros [17] = biological target: T4, Cereblon/Ikaros (Homo sapiens, UniProt Q96SW2+Q13422); experiment: PROTAC activity at CRBN/IKZF1 in human MV4-11 cells assessed as maximum degradation of protein at 0.1 uM incubated for 18 hrs by Western blotting analysis relative to control; assay type: cell-based
T4 sequence (Q96SW2 whole entry): as above
T4 sequence (Q13422 whole entry): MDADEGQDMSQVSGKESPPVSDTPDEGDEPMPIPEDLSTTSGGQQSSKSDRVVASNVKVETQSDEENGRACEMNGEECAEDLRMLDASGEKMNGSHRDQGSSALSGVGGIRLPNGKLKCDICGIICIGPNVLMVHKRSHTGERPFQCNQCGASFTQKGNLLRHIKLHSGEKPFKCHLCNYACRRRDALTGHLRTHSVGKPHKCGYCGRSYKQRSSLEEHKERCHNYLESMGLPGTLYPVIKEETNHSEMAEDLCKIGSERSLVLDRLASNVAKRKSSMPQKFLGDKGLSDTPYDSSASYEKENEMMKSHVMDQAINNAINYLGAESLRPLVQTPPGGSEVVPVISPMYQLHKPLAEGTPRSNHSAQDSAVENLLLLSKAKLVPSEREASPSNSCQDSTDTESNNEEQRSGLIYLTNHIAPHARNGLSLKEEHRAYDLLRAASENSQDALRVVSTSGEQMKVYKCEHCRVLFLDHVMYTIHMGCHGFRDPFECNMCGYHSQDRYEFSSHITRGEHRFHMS

Cereblon/Ikaros [18] = biological target: T4, Cereblon/Ikaros; experiment: PROTAC activity at CRBN/IKZF1 in human MV4-11 cells assessed as degradation of IKZF1 protein incubated for 18 hrs by Western blotting analysis; assay type: cell-based

SMILES: Cc1sc2c(c1C)C(c1ccc(Cl)cc1)=N[C@@H](CC(=O)Nc1ccc(OCCOCCOCCOCCNc3cccc4c3C(=O)N(C3CCC(=O)NC3=O)C4=O)cc1)c1nnc(C)n1-2 (some centres not stated)
IC50 [1]: 14.5 nM

IC50 (VCaP): < 1 nM
DC50 [3]: < 5 nM
SMILES: Cc1ncsc1-c1ccc([C@H](C)NC(=O)[C@@H]2C[C@@H](O)CN2C(=O)[C@@H](NC(=O)COCCCOCCNC(=O)C[C@@H]2N=C(c3ccc(Cl)cc3)c3c(sc(C)c3C)-n3c(C)nnc32)C(C)(C)C)cc1
IC50 [2]: < 1 nM
IC50 (CWR22R): < 1 nM

DC50 [4]: 3.3 nM
DC50 [5]: 1.1 nM
SMILES: Cc1ncsc1-c1ccc(CNC(=O)[C@@H]2C[C@@H](O)CN2C(=O)[C@@H](NC(=O)OCC(C)(COCCOCCOCCNC(=O)C[C@@H]2N=C(c3ccc(Cl)cc3)c3c(sc(C)c3C)-n3c(C)nnc32)COCCOCCOCCNC(=O)C[C@@H]2N=C(c3ccc(Cl)cc3)c3c(sc(C)c3C)-n3c(C)nnc32)C(C)(C)C)cc1

DC50 [6]: 97 nM
DC50 [7]: 300 nM
SMILES: CN(C)C(=O)c1cc2cnc(Nc3ccc(N4CCN(Cc5cn(CCCCCC(=O)Nc6cccc7c6C(=O)N(C6CCC(=O)NC6=O)C7=O)nn5)CC4)cn3)nc2n1C1CCCC1 (configuration not stated)

SMILES: COc1cc(CC(=O)N[C@@H](Cc2ccccc2)C(=O)O[C@@H](Cc2ccc(C(F)(F)P(=O)(O)O)cc2)C(=O)N[C@@H](CCCCNC(=O)c2ccc(C)c(Br)c2)C(=O)NCc2cccc(CC(=O)N[C@H](C(=O)N3C[C@H](O)C[C@H]3C(=O)N[C@H](C)c3ccc(-c4scnc4C)cc3)C(C)(C)C)c2)ccc1O ({Phenylacetyl(4-OH,3-OMe)}-F[X1]K(Benzoyl(3-Br,4-Me))[NHCH2(1,3-C6H4)CH2CO][Tle][Hyp]-X2)
DC50 [8]: 8.7 nM
DC50 [9]: 14.1 nM

Emax [10]: > 100%
SMILES: CNC(=O)N1CCc2c(c(N3CCCc4cc(-c5cnn(C)c5)c(C(F)F)cc43)nn2C2CCN(C(=O)CCOCCOCCOCCOCCNc3ccc4c(c3)C(=O)N(C3CCC(=O)NC3=O)C4=O)CC2)C1 (configuration not stated)

Emax [11]: 93%
SMILES: Cc1ncsc1-c1ccc(NC(=O)[C@@H]2C[C@@H](O)CN2C(=O)[C@@H](NC(=O)COCCOCCOc2cc(OCC(=O)OC(C)(C)C)ccc2NC(=O)C[C@@H]2N=C(c3ccc(Cl)cc3)c3c(sc(C)c3C)-n3c(C)nnc32)C(C)(C)C)cc1

SMILES: Cc1cc(S(=O)(=O)NCCOCCOCCOCCOCCNc2cccc3c2C(=O)N(C2CCC(=O)NC2=O)C3=O)ccc1Nc1ncc(Br)c(Nc2cccc(F)c2C(N)=O)n1 (configuration not stated)
GR50 (OVCAR-8): 33.1 nM

DC50 [12]: 15 nM
DC50 [13]: 2.1 nM
DC50 [14]: 2.3 nM
SMILES: Cc1ncsc1-c1ccc([C@H](C)NC(=O)[C@@H]2C[C@@H](O)CN2C(=O)[C@@H](NC(=O)OCC(C)(COCCOCCOCCNC(=O)C[C@@H]2N=C(c3ccc(Cl)cc3)c3c(sc(C)c3C)-n3c(C)nnc32)COCCOCCOCCNc2cc3c(cc2F)C(=O)N(C2CCC(=O)NC2=O)C3=O)C(C)(C)C)cc1 (some centres not stated)
EC50 (RKO): 111 nM

DC50 [15]: 0.6 nM
SMILES: Cc1ncsc1-c1ccc([C@H](C)NC(=O)[C@@H]2C[C@@H](O)CN2C(=O)[C@@H](NC(=O)CN2CCN(CC(=O)N3CCN(C[C@]4(C)CCC(c5ccc(Cl)cc5)=C(CN5CCN(c6ccc(C(=O)NS(=O)(=O)c7ccc(N[C@H](CCN8C[C@H]9C[C@@H]8CO9)CSc8ccccc8)c(S(=O)(=O)C(F)(F)F)c7)cc6)CC5)C4)CC3)CC2)C(C)(C)C)cc1

DC50 [16]: 42 nM
Emax (Cereblon/Ikaros [17]): 90%
DC50 (Cereblon/Ikaros [18]): 500 nM
SMILES: CN1CCN(c2ccc(-c3cccc(CN4CCN(CCNC(=O)CCCCCCCNc5cccc6c5C(=O)N(C5CCC(=O)NC5=O)C6=O)CC4)c3)cc2NC(=O)c2c[nH]c(=O)cc2C(F)(F)F)CC1 (configuration not stated)
